Assay results as given in patent US8536192B2, “6,7-unsaturated-7-carbamoyl substituted morphinan derivative” (priority 2005, dated 2013).
pKi: −log10 of the molar value. Like-named read-outs stand apart in the source and are kept apart here.

Columns and labels:
[1] = molecular target: opioid δ receptor (Rattus norvegicus (Rat), UniProt P33533); assay: Binding assay of opioid δ receptor ([3H]-DADLE, rat cerebrum membrane)
Experimental: (§1) 1) Method of Preparing Membrane Specimen for Binding Assay
(§2) A rat cerebrum (Slc: SD) which had been stored at −80° C. was used. To a cerebrum which had been weighed was added a 20-fold amount of ice-cooled 10 mM Tris-HCl buffer (pH 7.0), and the mixture was homogenized (25000 rpm, 30 seconds) with Histocolon (NITI-ON), and centrifuged at 36600×g for 20 minutes. To the resulting pellet was added 15 ml of the same buffer, and the mixture was treated with Histocolon similarly, and centrifuged. This washing work was performed two times. After centrifugation, to the resulting pellet was added 15 mL of a 50 mM Tris-HCl buffer (pH 7.4), and this was treated with Histocolon, and finally resuspended in a 10-fold amount of the same buffer, which was used as a crude membrane fraction (Life Sci. 48, 111-116, 1991). The prepared membrane specimen was frozen and stored at −80° C., and at an assay, the specimen was rapidly thawed, and diluted to about 900 μg/mL with a 50 mM Tris-HCl buffer (pH 7.4) after the centrifugation and Histocolon treatment, and was used in an experiment. For measuring a protein concentration of the membrane specimen, Micro BCA Protein Assay Kit (PIERCE) was used.
2) Method of δ Receptor Binding Assay and Data Analysis
Into a tube was placed 480 μl of a rat cerebrum membrane fraction to which 100 mM choline chloride, 3 mM MnCl2 and 100 nM DAMGO had been added, and this was incubated at 25° C. for 2 hours. […] After washing, the filter was transferred to a mini vial for liquid scintillation counter, 5 mL of a scintillator (Cleasol I) was added, this was allowed to stand overnight, and the radioactivity was measured for 3 minutes with a liquid scintillation counter Tri-Carb 2200CA (PACKARD).

[2] = molecular target: opioid μ receptor (Rattus norvegicus (Rat), UniProt P33535); assay: Binding assay to opioid μ receptor ([3H]-DAMGO, rat cerebrum membrane)
Experimental: as §1
as §2, with “(pH 7.0), the mixture” for “(pH 7.0), and the mixture”, “(pH 7.4), this was” for “(pH 7.4), and this was”, “Histocolon, and this was finally resuspended” for “Histocolon, and finally resuspended”, “and at a test, the specimen” for “and at an assay, the specimen”
2) Method of μ Receptor Binding Assay and Data Analysis
After washing, the filter was transferred to a mini vial for liquid scintillation counter, 5 mL of a scintillator (Cleasol I) was added, and this was allowed to stand overnight, and the radioactivity was measured for 3 minutes with a liquid scintillation counter Tri-Carb 2200CA (PACKARD).

[3] = test system: carbon powder transport of inhibitory activity by morphine; assay: Mouse carbon powder transport assay (antagonism of morphine-inhibited small intestine transport); assay type: in vivo; conditions: sc, 1 h, test compound 3 mg/kg subcutaneously, 15 minutes before morphine 3 mg/kg
Experimental: 1) Preparation of Test Diet (Carbon Powder)
Using a 10 w/v % arabic gum aqueous solution, a 5 w/v % active carbon solution was prepared, which was used as a test diet.
A ddY line male mouse (5 to 6 weeks old) was used. The mouse was fasted from about 20 or more hours before assay initiation, and water was given ad lib.
The test compound was dissolved in a solvent (DMAA/Solutol/5% meglumine=15/15/70).
Morphine hydrochloride was dissolved in a physiological saline. The test compound, the above solvent and morphine were all administered at a liquid amount of 10 mL/kg.
The test compound 3 mg/kg (test compound administration group) or the solvent (solvent administration group) were subcutaneously administered and, after 15 minutes, amount of 3 mg/kg of morphine was administered to all groups. As a control group, the solvent was subcutaneously administered and, after 15 minutes, a physiological saline was administered.
The test diet 10 mL/kg was orally administered at 15 minutes after administration of morphine. At thirty minutes after administration of the test diet (60 minutes after administration of the test substance), all mice were isolated from esophagus to an ileocecal part near a stomach cardia part. A distance from pyloric part of the stomach to an ileocecal part (full length of small intestine) and a distance until a carbon powder reaching front part (carbon powder movement distance) were measured. The antagonistic activity on the carbon powder transport of inhibitory activity by morphine was calculated as MPE (%) using the following equation. Transport rate (%)=(carbon powder movement distance)/full length of small intestine (cm))×100 M.P.E. (%)={(small intestine transport rate (%) of each individual of test compound administration group−average small intestine transport rate (%) of solvent administration group)/(average small intestine transport rate (%) of control group−average small intestine transport rate (%) of solvent administration group)}×100

[4] = [3H]-DAMGO, rat cerebrum membrane fraction, read-out: Ki
[5] = [3H]-DADLE, rat cerebrum membrane fraction, read-out: Ki

Row | SMILES | pKi [1] | pKi [2, 4] | percent antagonism of morphine-inhibited transport (M.P.E.) at 3 mg/kg [3] | pKi [1, 5] | pKi [2]
1 | Cc1cc(=O)[nH]c2cc(NC(=O)C3=C(O)[C@@H]4Oc5c(O)ccc6c5[C@@]45CCN(CC4CC4)[C@H](C6)[C@]5(O)C3)ccc12 [Compound I-240] | 7.94 | 8.16 | 36.3% |  | 
2 | CC(C)NC(=O)C1=C(NS(=O)(=O)c2ccc(F)cc2)[C@@H]2Oc3c(O)ccc4c3[C@@]23CCN(CC2CC2)[C@H](C4)[C@]3(O)C1 [Compound I-289] |  | 7.89 | 67% | 9.33 | 
3 | Cc1noc(C(C)(C)NC(=O)C2=C(O)[C@@H]3Oc4c(O)ccc5c4[C@@]34CCN(CC3CC3)[C@H](C5)[C@]4(O)C2)n1 [Compound I-285] | 8.24 | 8.14 | 82.5% |  | 
4 | COC(=O)C(C)(C)NC(=O)C1=C(O)[C@@H]2Oc3c(O)ccc4c3[C@@]23CCN(CC2CC2)[C@H](C4)[C@]3(O)C1 [Compound I-49] |  |  | 80% | 8.40 | 7.78
5 | COCC(C)(COC)NC(=O)C1=C(O)[C@@H]2Oc3c(O)ccc4c3[C@@]23CCN(CC2CC2)[C@H](C4)[C@]3(O)C1 [Compound I-288] | 8.27 |  | 101% |  | 7.84
6 | CCN(CC)S(=O)(=O)c1ccc(OC)c(NC(=O)C2=C(O)[C@@H]3Oc4c(O)ccc5c4[C@@]34CCN(CC3CC3)[C@H](C5)[C@]4(O)C2)c1 [Compound I-229] | 8.23 | 8.89 | 39.7% |  | 
7 | COCC(C)(C)NC(=O)C1=C(O)[C@@H]2Oc3c(O)ccc4c3[C@@]23CCN(CC2CC2)[C@H](C4)[C@]3(O)C1 [Compound I-286] | 8.61 |  | 70.6% |  | 7.85
8 | COCC1(NC(=O)C2=C(O)[C@@H]3Oc4c(O)ccc5c4[C@@]34CCN(CC3CC3)[C@H](C5)[C@]4(O)C2)CC1 [Compound I-283] | 8.43 |  | 63.7% |  | 7.70
9 | COC(=O)C1(NC(=O)C2=C(O)[C@@H]3Oc4c(O)ccc5c4[C@@]34CCN(CC3CC3)[C@H](C5)[C@]4(O)C2)CCC1 [Compound I-199] | 7.89 |  | 62.8% |  | 8.02
10 | CN(C)c1ccc(NC(=O)C2=C(O)[C@@H]3Oc4c(O)ccc5c4[C@@]34CCN(CC3CC3)[C@H](C5)[C@]4(O)C2)cc1 [Compound I-39] | 7.38 |  | 52% |  | 9.48
11 | CC(C)(NC(=O)C1=C(O)[C@@H]2Oc3c(O)ccc4c3[C@@]23CCN(CC2CC2)[C@H](C4)[C@]3(O)C1)c1nc(-c2ccccc2)no1 [Compound I-284] |  |  | 79.6% | 9.04 | 8.95
12 | Cc1ccc2nc(=O)c3c(n2c1)[C@@H]1Oc2c(O)ccc4c2[C@@]12CCN(CC1CC1)[C@H](C4)[C@]2(O)C3 [Compound I-267] |  | 9.08 | 60% | 7.38 | 
13 | O=C(Nc1cccc(C(=O)O)c1)C1=C(O)[C@@H]2Oc3c(O)ccc4c3[C@@]23CCN(CC2CC2)[C@H](C4)[C@]3(O)C1 [Compound I-188] | 8.52 |  | 74.6% |  | 7.76
